Results taken from ChEMBL document CHEMBL3813616, “Discovery of novel 7-azaindoles as PDK1 inhibitors” (Bioorg Med Chem Lett, 2016).

Key:
[1] = target: Mitogen-activated protein kinase 3 (Homo sapiens) (UniProt P27361); experiment: Inhibition of human MAPK3 (2 to 544 residues) assessed as enzyme activity at 1 uM using 33P ATP by radioactive filter binding assay; set-up: scale not given: the % may be the effect or the level left
[2] = target: Serine/threonine-protein kinase Nek6 (Homo sapiens) (UniProt Q9HC98); experiment: Inhibition of human NEK6 (8 to 313 residues) assessed as enzyme activity at 1 uM using 33P ATP by radioactive filter binding assay; set-up: scale not given: the % may be the effect or the level left
Sequence of Serine/threonine-protein kinase Nek6 (Homo sapiens) (Q9HC98 whole entry, the tested form may be a part): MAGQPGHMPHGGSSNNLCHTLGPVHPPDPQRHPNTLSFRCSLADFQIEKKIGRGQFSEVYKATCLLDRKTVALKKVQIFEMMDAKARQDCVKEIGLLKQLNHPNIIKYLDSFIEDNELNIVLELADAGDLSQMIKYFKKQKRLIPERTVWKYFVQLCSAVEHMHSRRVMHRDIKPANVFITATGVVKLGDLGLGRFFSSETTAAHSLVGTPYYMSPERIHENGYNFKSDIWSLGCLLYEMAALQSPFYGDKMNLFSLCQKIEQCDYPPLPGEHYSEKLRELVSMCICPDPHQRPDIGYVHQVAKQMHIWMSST

[3] = target: T1, Mitogen-activated protein kinase 12 (Homo sapiens) (UniProt P53778); experiment: Inhibition of SAPK3 (unknown origin) assessed as enzyme activity at 1 uM using 33P ATP by radioactive filter binding assay; set-up: scale not given: the % may be the effect or the level left
T1 sequence (whole entry): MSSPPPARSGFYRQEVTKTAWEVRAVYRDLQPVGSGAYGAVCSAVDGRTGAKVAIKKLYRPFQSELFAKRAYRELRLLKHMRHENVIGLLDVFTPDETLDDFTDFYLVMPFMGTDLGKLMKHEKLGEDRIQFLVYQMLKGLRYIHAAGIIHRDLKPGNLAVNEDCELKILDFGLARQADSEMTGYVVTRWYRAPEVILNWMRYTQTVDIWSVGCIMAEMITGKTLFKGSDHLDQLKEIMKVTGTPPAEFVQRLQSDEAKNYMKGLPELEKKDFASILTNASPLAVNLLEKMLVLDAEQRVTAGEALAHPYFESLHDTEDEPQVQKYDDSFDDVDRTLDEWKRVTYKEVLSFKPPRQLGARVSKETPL

[4] = target: T2, 3-phosphoinositide-dependent protein kinase 1 (Homo sapiens, UniProt O15530); experiment: Inhibition of PDK1 in human PC3 cells assessed as reduction in AKT Thr308 phosphorylation after 45 mins; format: cell-based, PC-3
T2 sequence (O15530 whole entry): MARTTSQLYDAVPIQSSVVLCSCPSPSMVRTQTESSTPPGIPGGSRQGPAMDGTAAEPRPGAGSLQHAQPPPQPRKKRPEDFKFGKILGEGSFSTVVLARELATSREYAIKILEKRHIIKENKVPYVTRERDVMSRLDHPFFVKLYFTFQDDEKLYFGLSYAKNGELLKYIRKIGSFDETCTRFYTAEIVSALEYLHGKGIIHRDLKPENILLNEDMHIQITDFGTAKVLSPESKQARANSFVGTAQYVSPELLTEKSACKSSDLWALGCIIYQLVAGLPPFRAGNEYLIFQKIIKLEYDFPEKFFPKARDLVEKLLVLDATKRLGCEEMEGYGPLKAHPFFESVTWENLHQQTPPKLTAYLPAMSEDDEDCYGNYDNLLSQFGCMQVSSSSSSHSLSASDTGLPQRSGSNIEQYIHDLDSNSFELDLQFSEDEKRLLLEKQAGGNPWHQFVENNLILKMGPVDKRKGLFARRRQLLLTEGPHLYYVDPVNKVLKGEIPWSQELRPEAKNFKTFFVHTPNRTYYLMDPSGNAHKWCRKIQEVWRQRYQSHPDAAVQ

[5] = Intrinsic clearance in human liver microsomes; format: ADME; settings: read-out: CLH
[6] = Intrinsic clearance in mouse liver microsomes; format: ADME; settings: read-out: CLH
[7] = Permeability across apical to basolateral side in human Caco2 cells; format: ADME, cell-based; settings: Caco-2
[8] = target: Phosphatidylinositol 4,5-bisphosphate 3-kinase catalytic subunit gamma isoform (Homo sapiens, UniProt P48736); experiment: Inhibition of PI3K gamma (unknown origin)
Sequence of Phosphatidylinositol 4,5-bisphosphate 3-kinase catalytic subunit gamma isoform (P48736 whole entry, the tested form may be a part, canonical isoform): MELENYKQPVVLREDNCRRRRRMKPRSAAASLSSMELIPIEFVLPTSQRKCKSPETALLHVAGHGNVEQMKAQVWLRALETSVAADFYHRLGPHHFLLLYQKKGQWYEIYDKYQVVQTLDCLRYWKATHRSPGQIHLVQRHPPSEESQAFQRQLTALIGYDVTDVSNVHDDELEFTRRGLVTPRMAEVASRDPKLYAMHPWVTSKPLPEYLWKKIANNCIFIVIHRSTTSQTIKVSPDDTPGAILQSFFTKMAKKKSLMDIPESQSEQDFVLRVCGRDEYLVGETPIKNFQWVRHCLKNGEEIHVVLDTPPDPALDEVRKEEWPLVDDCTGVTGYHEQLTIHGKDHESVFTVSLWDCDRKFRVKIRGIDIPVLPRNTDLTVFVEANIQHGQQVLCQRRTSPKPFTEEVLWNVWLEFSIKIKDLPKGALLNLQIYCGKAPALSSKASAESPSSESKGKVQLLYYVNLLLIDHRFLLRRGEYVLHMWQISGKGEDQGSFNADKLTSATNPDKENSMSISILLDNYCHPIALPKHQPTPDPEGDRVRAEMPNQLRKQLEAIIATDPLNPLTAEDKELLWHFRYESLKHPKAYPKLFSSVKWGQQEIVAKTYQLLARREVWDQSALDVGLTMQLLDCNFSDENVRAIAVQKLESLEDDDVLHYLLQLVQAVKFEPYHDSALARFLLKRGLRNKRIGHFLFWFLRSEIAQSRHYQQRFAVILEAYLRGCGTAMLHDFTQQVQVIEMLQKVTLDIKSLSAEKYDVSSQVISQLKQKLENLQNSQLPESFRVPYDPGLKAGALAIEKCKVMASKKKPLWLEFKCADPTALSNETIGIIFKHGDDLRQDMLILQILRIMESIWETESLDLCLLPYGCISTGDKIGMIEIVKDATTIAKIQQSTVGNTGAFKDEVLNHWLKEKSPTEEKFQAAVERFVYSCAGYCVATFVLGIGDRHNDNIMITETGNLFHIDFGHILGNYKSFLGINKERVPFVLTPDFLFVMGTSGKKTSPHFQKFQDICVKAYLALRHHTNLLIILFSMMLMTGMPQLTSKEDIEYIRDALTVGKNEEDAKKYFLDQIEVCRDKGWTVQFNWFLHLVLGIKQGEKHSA

[9] = target: T3, Serine/threonine-protein kinase Chk1 (Homo sapiens) (UniProt O14757); experiment: Inhibition of human CHK1 (1 to 476 residues) assessed as enzyme activity at 1 uM using 33P ATP by radioactive filter binding assay; set-up: scale not given: the % may be the effect or the level left
T3 sequence (whole entry): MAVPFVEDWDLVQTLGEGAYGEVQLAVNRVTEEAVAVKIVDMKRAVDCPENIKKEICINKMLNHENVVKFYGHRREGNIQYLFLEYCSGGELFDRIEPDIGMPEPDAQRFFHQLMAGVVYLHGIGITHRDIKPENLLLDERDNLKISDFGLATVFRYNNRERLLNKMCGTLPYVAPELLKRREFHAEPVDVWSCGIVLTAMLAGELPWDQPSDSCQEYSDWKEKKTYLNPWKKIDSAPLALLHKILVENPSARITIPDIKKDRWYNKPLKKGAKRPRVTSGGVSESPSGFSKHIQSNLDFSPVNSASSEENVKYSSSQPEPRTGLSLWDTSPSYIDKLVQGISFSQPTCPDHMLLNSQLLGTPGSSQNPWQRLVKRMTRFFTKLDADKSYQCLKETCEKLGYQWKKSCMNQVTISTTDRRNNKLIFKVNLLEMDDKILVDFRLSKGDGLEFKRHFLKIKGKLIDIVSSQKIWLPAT

[10] = target: Serine/threonine-protein kinase Chk2 (Homo sapiens) (UniProt O96017); experiment: Inhibition of human CHK2 (5 to 543 residues) assessed as enzyme activity at 1 uM using 33P ATP by radioactive filter binding assay; set-up: scale not given: the % may be the effect or the level left
Sequence of Serine/threonine-protein kinase Chk2 (Homo sapiens) (O96017 whole entry, the tested form may be a part): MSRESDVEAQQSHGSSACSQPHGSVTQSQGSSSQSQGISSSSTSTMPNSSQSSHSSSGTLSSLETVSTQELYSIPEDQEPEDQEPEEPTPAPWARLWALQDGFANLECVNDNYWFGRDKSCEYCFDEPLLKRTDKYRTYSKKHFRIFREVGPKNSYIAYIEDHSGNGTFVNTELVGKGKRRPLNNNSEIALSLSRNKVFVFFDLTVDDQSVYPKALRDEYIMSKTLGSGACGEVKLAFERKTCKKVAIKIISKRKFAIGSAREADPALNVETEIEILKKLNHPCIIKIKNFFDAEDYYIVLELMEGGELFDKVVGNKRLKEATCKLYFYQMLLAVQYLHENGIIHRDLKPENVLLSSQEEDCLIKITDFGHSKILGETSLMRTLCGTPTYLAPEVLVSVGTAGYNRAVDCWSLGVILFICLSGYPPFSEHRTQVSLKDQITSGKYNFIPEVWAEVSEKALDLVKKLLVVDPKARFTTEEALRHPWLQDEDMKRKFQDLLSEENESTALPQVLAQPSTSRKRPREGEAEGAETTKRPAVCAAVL

[11] = target: T4, Dual specificity tyrosine-phosphorylation-regulated kinase 3 (Homo sapiens) (UniProt O43781); experiment: Inhibition of human DYRK3 (1 to 588 residues) assessed as enzyme activity at 1 uM using 33P ATP by radioactive filter binding assay; set-up: scale not given: the % may be the effect or the level left
T4 sequence (whole entry): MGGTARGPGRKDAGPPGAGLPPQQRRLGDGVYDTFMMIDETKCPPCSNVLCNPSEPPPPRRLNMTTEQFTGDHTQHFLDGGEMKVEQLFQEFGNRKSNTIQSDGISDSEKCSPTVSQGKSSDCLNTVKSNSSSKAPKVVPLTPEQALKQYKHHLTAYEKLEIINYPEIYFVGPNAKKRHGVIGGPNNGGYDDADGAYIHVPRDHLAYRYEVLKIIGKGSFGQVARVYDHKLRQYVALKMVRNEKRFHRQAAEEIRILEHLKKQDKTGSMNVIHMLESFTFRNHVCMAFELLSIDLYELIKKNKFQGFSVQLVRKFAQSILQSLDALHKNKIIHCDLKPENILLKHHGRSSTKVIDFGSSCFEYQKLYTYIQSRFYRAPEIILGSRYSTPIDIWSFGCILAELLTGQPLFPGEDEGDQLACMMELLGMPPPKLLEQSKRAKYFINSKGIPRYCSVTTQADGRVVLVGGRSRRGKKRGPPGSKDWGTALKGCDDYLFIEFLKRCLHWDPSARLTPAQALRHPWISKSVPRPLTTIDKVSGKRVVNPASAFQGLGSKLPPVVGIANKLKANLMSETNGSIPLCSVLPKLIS

[12] = target: Glycogen synthase kinase-3 beta (Homo sapiens) (UniProt P49841); experiment: Inhibition of human GSK3beta (2 to 420 residues) assessed as enzyme activity at 1 uM using 33P ATP by radioactive filter binding assay; set-up: scale not given: the % may be the effect or the level left
Sequence of Glycogen synthase kinase-3 beta (Homo sapiens) (P49841 whole entry, looked up, the tested form may be a part, canonical isoform): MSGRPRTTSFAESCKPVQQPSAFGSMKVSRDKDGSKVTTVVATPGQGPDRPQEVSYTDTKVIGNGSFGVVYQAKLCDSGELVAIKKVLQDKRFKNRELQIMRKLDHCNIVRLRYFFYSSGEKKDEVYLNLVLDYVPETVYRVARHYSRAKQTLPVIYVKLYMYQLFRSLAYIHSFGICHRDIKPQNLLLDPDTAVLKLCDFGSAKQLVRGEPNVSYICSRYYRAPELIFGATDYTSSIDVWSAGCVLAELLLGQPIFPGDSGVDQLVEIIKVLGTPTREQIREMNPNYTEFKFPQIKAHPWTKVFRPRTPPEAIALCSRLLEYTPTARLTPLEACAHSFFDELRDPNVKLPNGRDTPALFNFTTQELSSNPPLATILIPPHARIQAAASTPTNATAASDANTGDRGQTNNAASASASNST

[13] = target: Phosphatidylinositol 4,5-bisphosphate 3-kinase catalytic subunit beta isoform (Homo sapiens, UniProt P42338); experiment: Inhibition of PI3K beta (unknown origin)
Sequence of Phosphatidylinositol 4,5-bisphosphate 3-kinase catalytic subunit beta isoform (P42338 whole entry, the tested form may be a part, canonical isoform): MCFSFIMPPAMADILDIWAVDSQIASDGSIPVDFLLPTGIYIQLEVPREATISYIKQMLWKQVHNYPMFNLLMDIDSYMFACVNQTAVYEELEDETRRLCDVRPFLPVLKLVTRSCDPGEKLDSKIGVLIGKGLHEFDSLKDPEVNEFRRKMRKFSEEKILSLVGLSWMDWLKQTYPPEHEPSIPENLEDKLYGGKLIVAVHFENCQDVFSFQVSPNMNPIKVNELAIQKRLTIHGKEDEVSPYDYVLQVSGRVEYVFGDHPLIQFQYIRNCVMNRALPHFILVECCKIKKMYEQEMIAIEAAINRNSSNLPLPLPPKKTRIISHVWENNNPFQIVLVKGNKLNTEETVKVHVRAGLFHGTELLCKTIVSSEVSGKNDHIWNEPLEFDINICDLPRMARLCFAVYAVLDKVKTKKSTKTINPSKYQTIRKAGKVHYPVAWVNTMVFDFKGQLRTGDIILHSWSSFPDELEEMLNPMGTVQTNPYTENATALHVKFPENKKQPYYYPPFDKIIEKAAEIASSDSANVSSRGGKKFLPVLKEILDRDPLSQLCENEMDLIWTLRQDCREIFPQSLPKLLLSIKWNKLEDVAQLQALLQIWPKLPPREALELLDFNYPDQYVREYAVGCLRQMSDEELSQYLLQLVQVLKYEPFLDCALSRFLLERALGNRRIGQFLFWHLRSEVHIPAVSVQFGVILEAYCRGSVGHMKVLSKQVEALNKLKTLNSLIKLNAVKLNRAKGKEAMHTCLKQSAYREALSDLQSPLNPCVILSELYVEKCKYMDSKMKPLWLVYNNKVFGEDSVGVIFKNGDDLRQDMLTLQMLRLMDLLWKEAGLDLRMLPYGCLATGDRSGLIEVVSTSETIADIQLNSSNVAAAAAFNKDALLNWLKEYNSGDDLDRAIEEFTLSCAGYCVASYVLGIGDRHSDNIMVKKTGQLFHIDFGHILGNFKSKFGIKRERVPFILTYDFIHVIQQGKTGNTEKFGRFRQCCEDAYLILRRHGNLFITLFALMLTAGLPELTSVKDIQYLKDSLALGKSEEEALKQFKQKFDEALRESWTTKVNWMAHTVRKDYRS

[14] = target: Homeodomain-interacting protein kinase 3 (Homo sapiens) (UniProt Q9H422); experiment: Inhibition of human HIPK3 (161 to 562 residues) assessed as enzyme activity at 1 uM using 33P ATP by radioactive filter binding assay; set-up: scale not given: the % may be the effect or the level left
Sequence of Homeodomain-interacting protein kinase 3 (Homo sapiens) (Q9H422 whole entry, looked up, the tested form may be a part): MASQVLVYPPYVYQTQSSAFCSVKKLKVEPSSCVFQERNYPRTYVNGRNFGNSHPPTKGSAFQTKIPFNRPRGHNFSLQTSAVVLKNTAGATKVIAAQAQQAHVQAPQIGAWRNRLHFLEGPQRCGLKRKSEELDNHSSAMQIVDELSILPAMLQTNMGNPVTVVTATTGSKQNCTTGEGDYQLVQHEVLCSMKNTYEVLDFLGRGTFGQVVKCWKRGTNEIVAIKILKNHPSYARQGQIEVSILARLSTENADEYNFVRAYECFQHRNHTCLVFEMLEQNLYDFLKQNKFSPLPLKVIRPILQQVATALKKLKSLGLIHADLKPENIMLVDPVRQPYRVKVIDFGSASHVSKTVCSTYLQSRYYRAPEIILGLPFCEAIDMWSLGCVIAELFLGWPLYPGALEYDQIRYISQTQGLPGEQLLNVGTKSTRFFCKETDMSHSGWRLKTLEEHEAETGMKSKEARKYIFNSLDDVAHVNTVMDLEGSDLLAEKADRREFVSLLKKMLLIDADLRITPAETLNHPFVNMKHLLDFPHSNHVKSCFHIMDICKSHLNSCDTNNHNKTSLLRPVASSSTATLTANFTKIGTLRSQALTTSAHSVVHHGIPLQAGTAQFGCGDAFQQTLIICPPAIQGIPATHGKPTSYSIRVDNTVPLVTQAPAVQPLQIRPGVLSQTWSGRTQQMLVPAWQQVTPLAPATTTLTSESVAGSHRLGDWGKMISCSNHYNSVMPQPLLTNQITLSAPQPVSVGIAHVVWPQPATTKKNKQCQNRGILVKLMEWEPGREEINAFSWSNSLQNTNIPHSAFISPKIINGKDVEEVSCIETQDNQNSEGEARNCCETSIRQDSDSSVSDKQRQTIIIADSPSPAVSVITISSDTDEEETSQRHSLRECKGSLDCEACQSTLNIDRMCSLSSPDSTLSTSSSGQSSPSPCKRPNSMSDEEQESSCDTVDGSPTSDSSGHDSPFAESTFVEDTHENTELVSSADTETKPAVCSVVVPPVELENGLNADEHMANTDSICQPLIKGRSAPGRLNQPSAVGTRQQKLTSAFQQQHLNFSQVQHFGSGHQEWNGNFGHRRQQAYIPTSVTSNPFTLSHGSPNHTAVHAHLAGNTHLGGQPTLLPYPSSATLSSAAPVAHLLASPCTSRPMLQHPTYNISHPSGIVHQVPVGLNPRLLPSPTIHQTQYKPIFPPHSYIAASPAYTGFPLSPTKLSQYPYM

Sequence of Mitogen-activated protein kinase 3 (Homo sapiens) (P27361 whole entry, the tested form may be a part): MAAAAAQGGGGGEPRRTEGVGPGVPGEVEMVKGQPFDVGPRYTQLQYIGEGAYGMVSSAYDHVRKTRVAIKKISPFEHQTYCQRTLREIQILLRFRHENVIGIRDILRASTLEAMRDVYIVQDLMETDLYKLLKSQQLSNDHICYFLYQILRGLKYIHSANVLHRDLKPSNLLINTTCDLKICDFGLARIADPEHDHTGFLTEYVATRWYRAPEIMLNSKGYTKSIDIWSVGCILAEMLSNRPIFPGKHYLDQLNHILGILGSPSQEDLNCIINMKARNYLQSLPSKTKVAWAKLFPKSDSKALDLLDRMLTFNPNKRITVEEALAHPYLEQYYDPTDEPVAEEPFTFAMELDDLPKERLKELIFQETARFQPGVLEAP

Compound `CCc1cc(-c2c[nH]c3ncc(-c4cnn(C5CCNCC5)c4)cc23)nc(N)n1` has an Activity [1] of -95%, an Activity [2] of -4% and an Activity [3] of -45%. It also gave an IC50 [4] of 13 µM, a microsomal CLint [5] of less than 10 µL/min/mg and a microsomal CLint [6] of less than 10 µL/min/mg. The Papp A→B [7] was 1.3 ×10⁻⁶ cm/s, the IC50 [8] was greater than 10 µM and the Activity [9] was -89%. It also gave an Activity [10] of -81%, an Activity [11] of -87% and an Activity [12] of -94%.

With `CCCCc1cc(-c2c[nH]c3ncc(-c4cnn(C5CCNCC5)c4)cc23)nc(N)n1` the Activity [1] was -97%, the Activity [2] was -16% and the Activity [3] was -42%. The IC50 [4] was 2.3 µM, the microsomal CLint [5] was less than 10 µL/min/mg and the microsomal CLint [6] was less than 10 µL/min/mg. The Papp A→B [7] was 0.3 ×10⁻⁶ cm/s, the IC50 [13] was greater than 30 µM and the Activity [9] was -79%. For the same compound, the Activity [10] was -92%, the Activity [11] was -84% and the Activity [12] was -94%.

`CCCCc1cc(-c2c[nH]c3ncccc23)nc(N)n1` showed an Activity [14] of -52%, an Activity [1] of -54% and an Activity [2] of -11%. The Activity [3] was -57%, the IC50 [4] was greater than 10 µM and the IC50 [13] was greater than 10 µM. It also gave an IC50 [8] greater than 10 µM, an Activity [9] of -2% and an Activity [10] of -44%. For the same compound, the Activity [11] was -80% and the Activity [12] was -86%.

Compound `Nc1nccc(-c2c[nH]c3ncccc23)n1` [MERIOLIN 1] has an Activity [14] of -69%, an Activity [1] of -77% and an Activity [2] of -7%. The Activity [3] was -59%, the IC50 [4] was greater than 10 µM and the IC50 [8] was greater than 10 µM. For the same compound, the Activity [9] was -6%, the Activity [10] was -37% and the Activity [11] was -82%. It also gave an Activity [12] of -77%.
